In patent publication US8741659B2, “Composition for measuring the binding affinity between nucleic acid and test substance, and use thereof” (Osaka University, priority 2007, dated 2014):

Legend:
[1] = system: double strand RNA (SEQ ID NO: 1 hybridized with SEQ ID NO: 3); test: Fluorescence titration experiment using double strand RNA; type: binding; conditions: 1.0 μM compound, double strand RNA 0.0-1.0 μM
Protocol: (§1) Then, changes in fluorescence intensities were observed.
(§2) Firstly, X2S, X2S(3), X2S(4), X2S(5), X2S(2-Me), and 3,6-X2S(2) were respectively mixed with cacodylate buffer solutions (sodium cacodylate: 10 mM, pH 7.0; NaCl: 100 mM) each at 1.0 μM, so that solutions of the respective compounds were obtained.
As the double strand RNA, an RNA as in FIG. 2 having N representing no base was used. Specifically, an RNA formed by hybridization of an RNA having the base sequence shown in SEQ ID NO: 1 with an RNA having the base sequence shown in SEQ ID NO: 3 was used. The RNA was added to each of the solutions of the above compositions in steps at 0.0 μM, 0.2 μM, 0.4 μM, 0.8 μM, and 1.0 μM.
Each of the solutions to which the RNAs were added was irradiated with light, and a fluorescence intensity was measured. A device used for measuring the fluorescence intensity was the same as that used in Example 13. A variation in a slit width was set to ±3.0 nm during the excitation, and to ±3.0 nm during the measurement of fluorescence.
In each of FIGS. 25 to 30, the horizontal axis represents the fluorescence wavelength, whereas the vertical axis represents the fluorescence intensity.
FIG. 31 is a graph illustrating a relationship between a concentration of the double strand RNA added and a fluorescence intensity of each compound. […]

[2] = system: RRE; test: Fluorescence titration / evaluation of binding with RRE; design: species or system HIV-1; conditions: 1.0 μM compound; for reduction of fluorescence intensity (residual fluorescence intensity) on binding RRE: RRE 0.0-1.0 μM; for difference in quenching efficiency between RRE and double strand RNA: FIGS. 41 and 42
Protocol: In this Example, binding between RRE and X2S was evaluated by a method identical to the method in Example 2.
The […] of RRE is shown in SEQ ID NO: 8. […] RRE was purchased from Hokkaido System Science Co., Ltd.
Firstly, the X2S solution obtained in Example 1 was diluted with a cacodylate buffer solution (sodium cacodylate: 10 mM, pH 7.0; NaCl: 100 mM), so that a concentration of X2S became 2 μM. To the 2-μM X2S solution thus obtained, RRE was added in steps at 0 μM, 1 μM, 2 μM, 3 μM, 4 μM, 5 μM, 6 μM, and 8 μM. Further, a fluorescence intensity of the 2-μM X2S solution was measured at each concentration. The fluorescence intensity was measured in the same manner as in Example 2.
FIG. 7 is a view illustrating a result of evaluation of binding between X2S and RRE. In FIG. 7, the horizontal axis represents the fluorescence wavelength, whereas the vertical axis represents the fluorescence intensity. […] Other figures include such arrows for results of measurements of fluorescence intensities.
FIG. 8 is a view plotting the fluorescence intensities at a measured wavelength of 453 nm shown in the result illustrated in FIG. 7. The horizontal axis represents the concentration of RRE, whereas the vertical axis represents the fluorescence intensity.
as §1
as §2, with “obtained. RRE used in this Example was the same as that used in Example 4. RRE was added to each of the solutions of the respective compounds in steps at 0.0 μM, 0.2 μM, 0.4 μM, 0.8 μM, and 1.0 μM.” for “obtained.”
Each of the solutions to which RRE was added was irradiated with light, and a fluorescence intensity was measured. A device used for measuring the fluorescence intensity was the same as that used in Example 13. A variation in a slit width was also the same as that in Example 14.
FIG. 39 is a graph illustrating a relationship between a concentration of RRE added and a fluorescence intensity of each compound. Further, FIG. 39 is also a view plotting the fluorescence intensities of the respective fluorescence peaks shown in the results illustrated in FIGS. 33 to 38. FIG. 40 is a view plotting residual fluorescence intensities (%) which were obtained based on the results shown in FIGS. 33 to 38, assuming that the fluorescence intensities of the respective fluorescence peaks observed at a concentration of 0.0 μM of RRE were 100%. In each of FIGS. 39 and 40, the horizontal axis represents the concentration of the RNA. In FIG. 39, the vertical axis represents the fluorescence intensity. In FIG. 40, the vertical axis represents the residual fluorescence intensity (%).
FIG. 41 is a view plotting values obtained by dividing (i) the residual fluorescence intensities (%) obtained in the case involving use of the double strand RNA by (ii) the residual fluorescence intensities (%) obtained in the case involving use of RRE. That is, FIG. 41 is a view plotting values obtained by dividing (i) the residual fluorescence intensity (%) shown in FIG. 32 by (ii) the residual fluorescence intensities (%) shown in FIG. 40. FIG. 42 is a view plotting values obtained by subtracting (i) the residual fluorescence intensities (%) obtained in the case involving use of RRE from (ii) the residual fluorescence intensities (%) obtained in the case involving use of the double strand RNA. That is, FIG. 42 is a view plotting values obtained by subtracting (i) the residual fluorescence intensities (%) shown in FIG. 40 from (ii) the residual fluorescence intensities (%) shown in FIG. 32.
In this Example, 1-Pyrenemethanamide, hydrochloride was caused to bind to a double strand RNA or RRE. Then, a change in a fluorescence intensity was observed. […]

Compound | reduction of fluorescence intensity (residual fluorescence intensity) on binding double strand RNA [1] | reduction of fluorescence intensity (residual fluorescence intensity) on binding RRE [2] | difference in quenching efficiency between RRE and double strand RNA [2]
CCC(N)COc1ccc2oc3ccc(OCC(N)CC)cc3c(=O)c2c1 (stereo not drawn) [X2S(4), 2,7-bis(2-aminobutoxy)xanthen-9-one] | particularly high reduction rates | particularly high reduction rates | greatest
CC(N)COc1ccc2oc3ccc(OCC(C)N)cc3c(=O)c2c1 (stereo not drawn) [X2S(3), 2,7-bis(2-aminopropoxy)xanthen-9-one] | particularly high reduction rates | particularly high reduction rates | greatest
